What is called TGI is the concentration at which net growth stops.

The values that follow come from PubChem BioAssay (NCI).

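Grown in 96-well plates, cells were treated for 48 hours with each compound at five concentrations. Insufficient inhibition: endpoint recorded as highest concentration tested. At the TGI there is no net growth.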

Test systems include HCT-15 colon; CCRF-CEM leukemia; HCC-2998 colon; UACC-257 melanoma; SF-539 CNS; OVCAR-5 ovarian; SNB-75 CNS; IGROV1 ovarian; SK-MEL-28 melanoma; HOP-92 NSCLC; TK-10 renal; M14 melanoma; RXF 393 renal; SF-295 CNS; DLD-1 colon; LXFL 529 NSCLC; OVCAR-4 ovarian; DMS 273 small cell lung; MOLT-4 leukemia; DMS 114 small cell lung.
Common to all, as to test: DTP human tumour cell line panel, 48 h

Consider `O=c1cnn(C/C=C\CO)c(=O)[nH]1`, for which the TGI in the experiment with HCT-15 colon, with CCRF-CEM leukemia, in the experiment on HCC-2998 colon, with UACC-257 melanoma, with SF-539 CNS and in the experiment with OVCAR-5 ovarian was more than 100 µM each time. In addition, the TGI with SNB-75 CNS, with IGROV1 ovarian, with SK-MEL-28 melanoma, in the experiment on HOP-92 NSCLC, in the experiment with TK-10 renal and in the experiment with M14 melanoma was more than 100 µM each time. Also, the TGI in the experiment on RXF 393 renal was more than 100 µM.
`O=C(Nc1cccc2ccccc12)Oc1ccccc1C1CCCCC1`: the TGI with HCT-15 colon was determined as 33.9 µM; with SF-295 CNS it was 31.3 µM; in the experiment on CCRF-CEM leukemia, 53.7 µM; in the experiment with HCC-2998 colon it was 34.3 µM; in the experiment with UACC-257 melanoma it was 29.8 µM; in the experiment on SF-539 CNS it was 32 µM. In addition, the TGI in the experiment with OVCAR-5 ovarian amounted to 32.1 µM; in the experiment on SNB-75 CNS, 29.8 µM; with IGROV1 ovarian, 51.2 µM; with DLD-1 colon, 44.8 µM; with SK-MEL-28 melanoma, 38.1 µM; in the experiment with HOP-92 NSCLC it was 30.7 µM. The TGI in the experiment with LXFL 529 NSCLC came out at 38.9 µM; in the experiment on TK-10 renal, 72.3 µM; in the experiment with OVCAR-4 ovarian it was 32.7 µM; with DMS 273 small cell lung, 38.1 µM; in the experiment on M14 melanoma, 32.4 µM; with RXF 393 renal, 29.2 µM. Further, the total growth inhibition concentration (TGI) in the experiment with MOLT-4 leukemia turned out to be 55.3 µM; in the experiment with DMS 114 small cell lung it was 41.9 µM.
In the case of `Cn1cnc([N+](=O)[O-])c1Sc1nc2cc(Cl)c(F)cc2[nH]1`, the TGI in the experiment on HCT-15 colon is 17.6 µM; in the experiment with SF-295 CNS, more than 100 µM; in the experiment on HCC-2998 colon, 20.7 µM; with UACC-257 melanoma it was 25.2 µM; in the experiment on SF-539 CNS, 16.7 µM; in the experiment with OVCAR-5 ovarian it was more than 100 µM. The TGI with SNB-75 CNS was 39.3 µM; in the experiment on IGROV1 ovarian, 35.8 µM; with DLD-1 colon, 22.7 µM; in the experiment on SK-MEL-28 melanoma it was 27.3 µM; in the experiment with HOP-92 NSCLC, 28.9 µM; in the experiment on LXFL 529 NSCLC, 19.2 µM. In addition, the total growth inhibition concentration (TGI) with TK-10 renal was 33 µM; with OVCAR-4 ovarian, 21 µM; with DMS 273 small cell lung it was 17.2 µM; in the experiment with M14 melanoma, 27.6 µM; in the experiment with RXF 393 renal, 9.93 µM; in the experiment with MOLT-4 leukemia it was 6.29 µM. Moreover, the TGI in the experiment with DMS 114 small cell lung was found to be 20.7 µM.
